From US6737383B1, “Herbicidal oxadiazolidines” (priority 1999, dated 2004)

Key:
[1] = system: rape; assay: Test B pre/postemergence rape; type: in vivo, Brassica napus; settings: for Plant response rating, Rape: Rate 500 g/ha
Summary of the method: (§1)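 Test chemicals in a non-phytotoxic solvent mixture with surfactant were sprayed preemergence onto planted seeds and postemergence onto plants 2 to 18 cm tall (1- to 4-leaf stage). After twelve to sixteen days in a greenhouse, injury was visually rated against untreated controls from 0 (no effect) to 10 (complete control).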

[2] = system: wheat; assay: Test B pre/postemergence wheat; type: in vivo, Triticum aestivum
Summary of the method: as §1

[3] = system: pigweed; assay: Test B pre/postemergence pigweed; type: in vivo, Amaranthus retroflexus
Summary of the method: as §1

[4] = system: blackgrass; assay: Test B pre/postemergence blackgrass; type: in vivo, Alopecurus myosuroides
Summary of the method: as §1

[5] = system: smallflower flatsedge; assay: Test B flood test smallflower flatsedge; type: in vivo, Cyperus difformis
Summary of the method: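 Flood test on plants grown to the 2-leaf stage; treated plants kept in greenhouse twelve to sixteen days, then visually rated against controls on a 0 (no effect) to 10 (complete control) scale.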

[6] = system: sugar beet; assay: Test B pre/postemergence sugar beet; type: in vivo, Beta vulgaris
Summary of the method: as §1

[7] = system: velvetleaf; assay: Test B pre/postemergence velvetleaf; type: in vivo, Abutilon theophrasti
Summary of the method: as §1

[8] = system: purple nutsedge; assay: Test B pre/postemergence purple nutsedge; type: in vivo, Cyperus rotundus
Summary of the method: as §1

[9] = system: wild oat; assay: Test B pre/postemergence wild oat; type: in vivo, Avena fatua
Summary of the method: as §1

[10] = system: morningglory; assay: Test B pre/postemergence morningglory; type: in vivo, Ipomoea hederacea
Summary of the method: as §1

[11] = Preemergence, Rate 62 g/ha, scale 0 to 10 (0 no effect, 10 complete control)
[12] = Preemergence, Rate 125 g/ha, scale of 0 to 10 where 0 is no effect and 10 is complete control
[13] = Postemergence, Rate 125 g/ha, scale of 0 to 10 where 0 is no effect and 10 is complete control
[14] = Postemergence, Rate 250 g/ha, scale of 0 to 10, 0 is no effect, 10 is complete control
[15] = Postemergence, Rate 500 g/ha, scale of 0 to 10 where 0 is no effect and 10 is complete control
[16] = Preemergence, Rate 500 g/ha, scale of 0 to 10 where 0 is no effect and 10 is complete control
[17] = Postemergence, Rate 62 g/ha, scale of 0 to 10, 0 is no effect, 10 is complete control

COC(C)n1c(=O)on(C(=O)N(c2ccc(F)cc2F)C(C)C)c1=O (stereo not drawn) [Compound 593]
Plant response rating, Rape ([1]; Postemergence, scale of 0 to 10 where 0 is no effect and 10 is complete control): 0 | Rape plant response rating [1, 11]: 0 | Rape plant response rating [1, 12]: 0 | Plant response rating, Rape ([1]; Preemergence, scale of 0 to 10 where 0 is no effect and 10 is complete control): 0 | Plant response rating, Wheat [2, 13]: 0 | Wheat plant response rating [2, 14]: 0 | Plant response rating, Wheat [2, 15]: 0 | Wheat plant response rating [2, 11]: 0 | Wheat plant response rating [2, 12]: 0 | Plant response rating, Wheat [2, 16]: 0 | Plant response rating, Redroot pigweed [3, 13]: 0 | Redroot pigweed plant response rating [3, 14]: 0 | Plant response rating, Redroot pigweed [3, 15]: 0 | Redroot pigweed plant response rating [3, 11]: 0 | Redroot pigweed plant response rating [3, 12]: 0 | Plant response rating, Redroot pigweed [3, 16]: 0 | Blackgrass plant response rating [4, 17]: 0 | Plant response rating, Blackgrass [4, 13]: 0 | Blackgrass plant response rating [4, 14]: 0 | Plant response rating, Blackgrass [4, 15]: 0 | Blackgrass plant response rating [4, 11]: 0 | Blackgrass plant response rating [4, 12]: 0 | Blackgrass plant response rating (0 to 10 scale) ([4]; Preemergence, Rate 250 g/ha): 0 | Blackgrass plant response rating [4, 16]: 0 | Plant response rating, S. Flatsedge (0 to 10 scale, 0 is no effect, 10 is complete control) ([5]; Rate 62 g/ha, flood test species, Pre-emergence, visual evaluation after twelve to sixteen days): 0 | S. Flatsedge plant response rating (0 to 10 scale, 0 is no effect, 10 is complete control) ([5]; Rate 125 g/ha, under heading Pre-emergence, flood test species, visual evaluation after twelve to sixteen days): 0 | S. Flatsedge plant response rating ([5]; Rate 250 g/ha, Pre-emergence (flood test species), scale 0 to 10, 0 is no effect, 10 is complete control): 0 | S. Flatsedge plant response rating ([5]; Rate 500 g/ha, Pre-emergence section of Table B, 0 to 10 scale (0 no effect, 10 complete control)): 0 | Plant response rating, Sugarbeets [6, 13]: 0 | Sugarbeets plant response rating [6, 14]: 0 | Plant response rating, Sugarbeets [6, 15]: 0 | Sugarbeets plant response rating [6, 11]: 0 | Sugarbeets plant response rating [6, 12]: 0 | Plant response rating, Sugarbeets [6, 16]: 0 | Plant response rating, Velvetleaf [7, 13]: 0 | Velvetleaf plant response rating [7, 14]: 0 | Plant response rating, Velvetleaf [7, 15]: 0 | Velvetleaf plant response rating [7, 11]: 0 | Velvetleaf plant response rating [7, 12]: 0 | Plant response rating, Velvetleaf [7, 16]: 0 | Nutsedge plant response rating [8, 17]: 0 | Plant response rating, Nutsedge [8, 13]: 0 | Nutsedge plant response rating [8, 14]: 0 | Plant response rating, Nutsedge [8, 15]: 0 | Nutsedge plant response rating [8, 11]: 0 | Nutsedge plant response rating [8, 12]: 0 | Plant response rating, Nutsedge [8, 16]: 2 | Plant response rating, Wild oats [9, 13]: 0 | Wild oats plant response rating [9, 14]: 0 | Plant response rating, Wild oats [9, 15]: 0 | Wild oats plant response rating [9, 11]: 0 | Wild oats plant response rating [9, 12]: 0 | Plant response rating, Wild oats [9, 16]: 0 | Morningglory plant response rating [10, 17]: 0 | Plant response rating, Morningglory [10, 13]: 0 | Morningglory plant response rating [10, 14]: 0 | Plant response rating, Morningglory [10, 15]: 2 | Morningglory plant response rating [10, 11]: 0 | Morningglory plant response rating [10, 12]: 0 | Plant response rating, Morningglory [10, 16]: 0
